#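 Protocol summary: plate cells (96-well), add compound at 5 concentrations, incubate 48 h, interpolate endpoints linearly. GI50 is the concentration that inhibits growth by half.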 Calls of active or inactive are those of the source. No stated cut-off is given here; in the data, active = GI50 up to about 1.1 µM and inactive = higher.
# Columns and labels:
# Assay in all cases: NCI anticancer screen, dose series, 48 h
# HOP-92 = tested on: HOP-92
# BT-549 = tested on: BT-549
# SK-MEL-5 = tested on: SK-MEL-5
# Malme-3M = tested on: Malme-3M
# M14 = tested on: M14
# U-251 = tested on: U-251
# KM12 = tested on: KM12
# UO-31 = tested on: UO-31
# HL-60 = tested on: HL-60
# MCF7 = tested on: MCF7
# SF-295 = tested on: SF-295
# NCI-H226 = tested on: NCI-H226
# OVCAR-5 = tested on: OVCAR-5
# SN12C = tested on: SN12C
# A498 = tested on: A498
# SNB-75 = tested on: SNB-75
# EKVX = tested on: EKVX
# HT-29 = tested on: HT-29
# HOP-62 = tested on: HOP-62
Compound,GI50 (HOP-92),GI50 (BT-549),GI50 (SK-MEL-5),GI50 (Malme-3M),GI50 (M14),GI50 (U-251),GI50 (KM12),GI50 (UO-31),GI50 (HL-60),GI50 (MCF7),GI50 (SF-295),GI50 (NCI-H226),GI50 (OVCAR-5),GI50 (SN12C),GI50 (A498),GI50 (SNB-75),GI50 (EKVX),GI50 (HT-29),GI50 (HOP-62)
CCOC(=O)/C(=C/Nc1c(C)n(C)n(-c2ccccc2)c1=O)C(C)=O,> 100 µM (inactive),> 100 µM (inactive),> 100 µM (inactive),> 100 µM (inactive),> 100 µM (inactive),> 100 µM (inactive),> 100 µM (inactive),> 100 µM (inactive),> 100 µM (inactive),> 100 µM (inactive),> 100 µM (inactive),> 100 µM (inactive),> 100 µM (inactive),> 100 µM (inactive),> 100 µM (inactive),> 100 µM (inactive),> 100 µM (inactive),–,–
COc1ccc(Oc2nc3c(N)cc(C(F)(F)F)cc3nc2-c2ccccc2)cc1,40.8 µM (inactive),47.1 µM (inactive),29.9 µM (inactive),–,13.3 µM (inactive),35.6 µM (inactive),12.8 µM (inactive),60.8 µM (inactive),59.6 µM (inactive),11.6 µM (inactive),18.5 µM (inactive),11.9 µM (inactive),–,–,28.2 µM (inactive),17.7 µM (inactive),12.8 µM (inactive),10.8 µM (inactive),22.8 µM (inactive)
NC(c1ccccc1)(C(F)(F)F)P1(=O)OC(=O)c2ccccc2O1 (centres undefined),20.9 µM (inactive),> 100 µM (inactive),8.07 µM (inactive),–,> 100 µM (inactive),> 100 µM (inactive),> 100 µM (inactive),> 100 µM (inactive),–,> 100 µM (inactive),> 100 µM (inactive),> 100 µM (inactive),> 100 µM (inactive),> 100 µM (inactive),84.1 µM (inactive),> 100 µM (inactive),> 100 µM (inactive),> 100 µM (inactive),> 100 µM (inactive)
COc1ccc(OC)c(/C=C/c2ccnc3ccccc23)c1,1.07 µM (active),0.568 µM (active),0.272 µM (active),2.07 µM (inactive),0.375 µM (active),0.374 µM (active),0.312 µM (active),0.458 µM (active),0.2 µM (active),0.851 µM (active),0.332 µM (active),0.441 µM (active),2.43 µM (inactive),0.619 µM (active),0.452 µM (active),–,0.463 µM (active),0.321 µM (active),0.45 µM (active)
CC1(C)Cc2ccccc2C(C)(Cl)C(=O)N1 (centres undefined),> 10 µM (inactive),> 10 µM (inactive),–,> 10 µM (inactive),> 10 µM (inactive),> 10 µM (inactive),> 10 µM (inactive),> 10 µM (inactive),> 10 µM (inactive),> 10 µM (inactive),> 10 µM (inactive),> 10 µM (inactive),> 10 µM (inactive),> 10 µM (inactive),> 10 µM (inactive),–,> 10 µM (inactive),> 10 µM (inactive),> 10 µM (inactive)
NC1=NCC(CN2CCCC2)O1 (centres undefined),> 100 µM (inactive),> 100 µM (inactive),> 100 µM (inactive),> 100 µM (inactive),> 100 µM (inactive),> 100 µM (inactive),> 100 µM (inactive),> 100 µM (inactive),> 100 µM (inactive),> 100 µM (inactive),> 100 µM (inactive),–,> 100 µM (inactive),> 100 µM (inactive),> 100 µM (inactive),> 100 µM (inactive),> 100 µM (inactive),> 100 µM (inactive),> 100 µM (inactive)
COc1ccc(C(Nc2ccccn2)c2cc(C(C)(C)C)cc(C(C)(C)C)c2O)cc1 (centres undefined),31.6 µM (inactive),17 µM (inactive),16.3 µM (inactive),10.4 µM (inactive),16.4 µM (inactive),19.8 µM (inactive),14.9 µM (inactive),29.9 µM (inactive),–,16.2 µM (inactive),12.4 µM (inactive),21.3 µM (inactive),42 µM (inactive),18.1 µM (inactive),54.8 µM (inactive),13.8 µM (inactive),36 µM (inactive),22 µM (inactive),16.9 µM (inactive)
COC(=O)c1ccc(NCc2c(O)ccc(O)c2Br)cc1Cl,14.9 µM (inactive),11.2 µM (inactive),18.5 µM (inactive),18.3 µM (inactive),17.5 µM (inactive),16.7 µM (inactive),15.3 µM (inactive),15.8 µM (inactive),1.69 µM (inactive),16 µM (inactive),18.9 µM (inactive),31.5 µM (inactive),14.6 µM (inactive),12.6 µM (inactive),> 100 µM (inactive),23.1 µM (inactive),14.6 µM (inactive),20.7 µM (inactive),–

# — ChEMBL document CHEMBL1201862, “PubChem BioAssay data set” (2004)
